# Experiments:
# [1] = tested on: L-dopa-induced dyskinesia; assay: L-dopa-induced dyskinesia (AIMs) in 6-OHDA lesioned rats; assay type: in vivo, rat
# Experimental: Adult male Sprague-Dawley rats (Harlan labs), ˜3 months old and weighing 250-275 grams, were housed in groups of 2 in a temperature- and humidity-controlled colony room that was maintained on a 12 hour light/dark cycle. Food and water were available ad libitum throughout the experiment with the exception that animals were food fasted for 12 hours prior to the surgical (6-OHDA lesion) procedure.
# Prior to surgery, all animals were anesthetized and placed in the prone position. The hair was clipped from the head and the surgical site aseptically washed with betadine and alcohol. The animals head was fixed during surgery by a stereotaxic device and continuously anesthetized using isoflurane (1.5-2.0%) via a nosecone attached to the stereotaxic frame. […] The animals were monitored by the surgeon for suitable hemostasis and respiration. […]
# For quantification of L-DOPA-induced AIMs, rats were placed in transparent plastic cages and observed during the first minute of every 30-minute period in the 2 hours following the injection of L-DOPA. […]
# Each of the four subtypes was scored on a severity scale from 0 to 4. • 0=absent • 1=present during less than half of the observation time • 2=present for more than half of the observation time • 3=present all the time but suppressible by external stimuli • 4=present all the time and not suppressible by external stimuli. […]
# α6/α3β2β3^V273S receptor = target: T1, α6/α3β2β3^V273S receptor (Homo sapiens, UniProt Q15825, V273S); assay: Oocyte two-electrode voltage-clamp electrophysiology, α6/α3β2β3V273S; assay type: cell-based; details: Xenopus laevis oocytes, fitted maximal current relative to acetylcholine; read-out: maximal efficacy compared to ACh
# T1 construct: fused on or other part: P32297 (Neuronal acetylcholine receptor subunit alpha-3) P17787 (Neuronal acetylcholine receptor subunit beta-2)
# Experimental: Two-electrode voltage-clamp electrophysiology recordings were done in Xenopus laevis oocytes injected with approximately 25 ng cRNA. After injection, oocytes were incubated at 17° C. for 2-3 days. During measurements, an oocyte was placed in a custom designed recording chamber where compound solutions are added directly to the oocyte via a glass capillary. Compound solutions were prepared on the day of measurement and applied to oocytes with a flowrate of 2.0 ml/min. All datasets were baseline subtracted and responses to individual applications were read as peak current amplitudes. Concentration response relationships describing compound effect at a fixed acetylcholine concentration were fitted to a monophasic Hill-equation. Potency (EC50) and efficacy values (fitted maximal current relative to maximal current of acetylcholine).
# [2] = target: T2, nAChRs of the α4β2 subtype (Rattus norvegicus, UniProt P09483+P12390); assay: In vitro inhibition of 3H-cytisine binding, rat cortex; details: ligand 3H-cytisine
# T2 construct: from tissue; host or cells: rat cerebral cortex membranes
# Experimental: The predominant subtype with high affinity for nicotine is comprised of α4 and β2 subunits. Here, the nicotine agonist ^3H-cytisine is used to selectively label nAChRs of the α4β2 subtype.
# Preparations were performed at 0-4° C. Cerebral cortices from male Wistar rats (150-250 g) were homogenized for 20 sec in 15 ml Tris-HCl (50 mM, pH 7.4) containing 120 mM NaCl, 5 mM KCl, 1 mM MgCl2 and 2.5 mM CaCl2 using an Ultra-Turrax homogenizer. The homogenate was centrifuged at 27,000×g for 10 min. The supernatant was discarded and the pellet is re-suspended in fresh buffer and centrifuged a second time. The final pellet was re-suspended in fresh buffer (35 ml per g of original tissue) and used for binding assays.
# Aliquots of 500 μl homogenate were added to 25 μl of test solution and 25 μl of ^3H-cytisine (1 nM, final concentration), mixed and incubated for 90 min at 0-4° C. Non-specific binding (5-10% of total binding) was determined using 100 μM (−)-nicotine. […]
# Binding was terminated by rapid filtration onto Whatman GF/B glass fibre filters using a Brandel Cell Harvester, followed by seven washes with 2 ml ice-cold buffer. The amount of radioactivity on the filters was determined by conventional liquid scintillation counting using a Tri-Carb™ counter (PerkinElmer Life and Analytical Sciences).
# Specific binding was calculated as total binding minus non-specific binding.
# T2 sequence (P09483 31-630): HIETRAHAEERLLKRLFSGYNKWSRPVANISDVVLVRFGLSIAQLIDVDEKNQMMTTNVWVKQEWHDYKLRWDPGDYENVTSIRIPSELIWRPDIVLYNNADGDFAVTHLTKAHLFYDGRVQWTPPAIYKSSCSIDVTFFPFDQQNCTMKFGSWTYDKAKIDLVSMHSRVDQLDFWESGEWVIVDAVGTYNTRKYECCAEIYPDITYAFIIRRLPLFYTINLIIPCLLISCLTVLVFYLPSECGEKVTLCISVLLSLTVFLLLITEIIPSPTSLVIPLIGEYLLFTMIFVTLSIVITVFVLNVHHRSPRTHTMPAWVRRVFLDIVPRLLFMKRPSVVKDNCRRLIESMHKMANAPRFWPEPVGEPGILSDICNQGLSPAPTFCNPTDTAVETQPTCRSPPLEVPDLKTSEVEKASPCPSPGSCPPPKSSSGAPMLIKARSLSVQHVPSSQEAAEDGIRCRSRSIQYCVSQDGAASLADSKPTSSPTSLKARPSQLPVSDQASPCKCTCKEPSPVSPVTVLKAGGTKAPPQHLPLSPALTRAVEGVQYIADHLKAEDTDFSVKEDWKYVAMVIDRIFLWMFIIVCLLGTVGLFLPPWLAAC
# T2 sequence (P12390 25-500): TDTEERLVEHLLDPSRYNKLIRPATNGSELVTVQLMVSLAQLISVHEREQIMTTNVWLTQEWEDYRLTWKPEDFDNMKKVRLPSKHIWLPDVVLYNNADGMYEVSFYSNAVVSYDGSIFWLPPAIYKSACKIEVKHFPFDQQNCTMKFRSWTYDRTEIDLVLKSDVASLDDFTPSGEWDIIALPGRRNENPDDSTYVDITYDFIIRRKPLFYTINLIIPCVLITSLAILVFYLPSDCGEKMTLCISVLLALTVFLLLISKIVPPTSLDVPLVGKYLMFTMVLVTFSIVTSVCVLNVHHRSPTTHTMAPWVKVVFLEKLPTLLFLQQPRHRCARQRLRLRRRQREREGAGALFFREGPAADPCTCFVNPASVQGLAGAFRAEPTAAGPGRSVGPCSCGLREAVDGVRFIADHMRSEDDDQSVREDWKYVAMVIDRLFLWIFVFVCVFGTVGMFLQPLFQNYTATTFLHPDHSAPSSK
# T1 sequence (Q15825 26-239 limits assumed): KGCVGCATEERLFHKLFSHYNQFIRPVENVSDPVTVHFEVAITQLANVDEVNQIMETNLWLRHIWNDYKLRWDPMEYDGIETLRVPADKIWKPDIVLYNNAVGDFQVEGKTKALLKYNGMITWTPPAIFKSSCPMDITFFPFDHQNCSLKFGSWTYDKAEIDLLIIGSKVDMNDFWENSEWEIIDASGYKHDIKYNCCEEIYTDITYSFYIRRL
# T1 sequence (P17787 26-502, further chain): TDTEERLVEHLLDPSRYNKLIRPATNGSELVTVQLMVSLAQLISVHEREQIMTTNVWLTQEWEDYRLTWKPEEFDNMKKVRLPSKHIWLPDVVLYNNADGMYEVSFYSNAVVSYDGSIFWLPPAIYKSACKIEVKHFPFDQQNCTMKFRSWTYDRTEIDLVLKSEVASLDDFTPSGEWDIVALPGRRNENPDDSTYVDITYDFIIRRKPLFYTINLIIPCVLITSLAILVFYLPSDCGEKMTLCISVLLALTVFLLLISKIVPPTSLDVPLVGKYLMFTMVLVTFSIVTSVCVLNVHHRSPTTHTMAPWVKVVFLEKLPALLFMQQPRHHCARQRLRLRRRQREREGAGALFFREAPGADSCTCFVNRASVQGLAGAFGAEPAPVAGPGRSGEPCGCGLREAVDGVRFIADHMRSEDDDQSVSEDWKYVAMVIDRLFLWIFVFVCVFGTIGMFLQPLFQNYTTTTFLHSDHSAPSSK
# T1 sequence (Q05901 22-458 V273S, further chain): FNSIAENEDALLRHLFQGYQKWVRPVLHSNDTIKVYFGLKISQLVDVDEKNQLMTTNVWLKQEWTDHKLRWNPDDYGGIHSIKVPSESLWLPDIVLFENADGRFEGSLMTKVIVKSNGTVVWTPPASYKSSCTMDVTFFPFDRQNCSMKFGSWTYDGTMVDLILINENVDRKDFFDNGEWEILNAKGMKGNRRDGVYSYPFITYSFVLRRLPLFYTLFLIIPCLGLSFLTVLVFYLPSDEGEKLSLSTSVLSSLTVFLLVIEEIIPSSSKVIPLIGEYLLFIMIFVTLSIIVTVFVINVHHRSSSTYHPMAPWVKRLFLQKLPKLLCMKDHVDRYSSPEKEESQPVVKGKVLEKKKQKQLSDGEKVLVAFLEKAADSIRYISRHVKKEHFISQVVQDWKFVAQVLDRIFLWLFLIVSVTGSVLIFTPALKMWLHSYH
smiles,measurement,setting,value
"CN1C2CCCC1CN(c1cccnc1)C2 [9-methyl-3-pyridin-3-yl-3,9-diaza-bicyclo[3.3.1]nonane]","L-dopa-induced AIMs, follow-up dose",[1]; 3.0 mg/kg,did not further decrease L-dopa-induced AIMs
same,L-dopa-induced AIMs,"[1]; 0.1, 0.3, 1.0 mg/kg sc 30 minutes prior to L-dopa (8 mg/kg)","significant, dose-related decrease in AIMs with the 0.3 and 1.0 mg/kg doses reaching statistical significance relative to saline controls"
same,Emax,α6/α3β2β3^V273S receptor,27%
same,Ki,[2],3.1 nM

# From patent publication US20180311238A1, “Selective Agonist Of a6 Containing nAChRs” (Saniona A/S, priority 2017, published 2018)
